{
  "source": "patent US8835617B2",
  "about": "“Polynucleotides encoding a human TRIM-Cyp fusion polypeptide, compositions thereof, and methods of using same” (priority 2008, dated 2014)",
  "key": {"HIV-1 [1]": {"system": "HIV-1", "source_text": "The timing of HIV-1 infection was changed to allow for a stabilization of engraftment prior to assessment of viral replication.\nHIV-1 down-regulates cell-surface expression of CD4 (Chen et al., 1996). […] Finally, tissue sections of thymi were directly examined for human T cells (using anti-CD3 antibody) and HIV-1 p24 antigen.\nThe MLNs are closest to the site of HIV-1 infection (i.p), while the PLNs are further away.\nRag2^−/−γc^−/− mice on a BALB/c background (provided by M. Ito; Central Institute for Experimental Animals, Kawasaki, Japan) were bred and maintained under specific pathogen-free conditions in accordance with the guidelines of the animal facility at the Institute for Research in Biomedicine. CL2 MBP (clodronate) was from Roche Diagnostics (Mannheim, Germany). Preparation of liposomes containing CL2 MBP was done as described previously (Van Rooijen and Sanders, 1994). 6-10 week-old mice received 100 ul of clodronate liposomes intraperitoneally (i.p.) 24 hours prior to irradiation using a single sublethal dose of 4.0 Gray (Gy) from a Cesium 137 source (Biobeam 8000, STS GmbH, Braunschweig, Germany) at 3.75 Gy/min. […] CD4^+ T cell engraftment and maintenance in mice was measured by flow cytometry. To obtain peripheral blood cells and plasma, mice were bled from the retro-orbital venous sinus under anesthesia and red blood cells were lysed. When sacrificed, single cell suspensions from organs were prepared. For FACS analysis monoclonal antibodies against the following antigens were used: CD3 (UCHT1), CD4 (13B8.2), CD8 (B9.11), p24 (clone KC57) (all Immunotech/Beckman Coulter, Marseille, France), CD45 (HI30) (Caltag, Burlingame, Calif.). Intracellular staining for p24 was performed on single cell suspensions from mesenteric lymph nodes and thymus following staining with anti-CD3 antibody. Cells were washed, permeabilized, and fixed by treatment with BD Cytofix/Cytoperm (BD Pharmingen) and stained with anti-p24 antibody in BD Permwash solution (BD Pharmingen) following the manufacturer's instructions. Plasma HIV RNA concentrations were determined by Cobas Amplicor RT-PCR assay (Roche Diagnostics, Basel, Switzerland). Immunohistochemical stainings were performed as previously described (Baenziger et al., 2006). To assess nonspecific binding, tissue from untransplanted and uninfected transplanted mice was stained as controls.\nRag2^−/−γc^−/− mice on a BALB/c background (provided by M. Ito; Central Institute for Experimental Animals, Kawasaki, Japan) were bred and maintained under specific pathogen-free conditions in accordance with the guidelines of the animal facility at the Institute for Research in Biomedicine (Bellinzona) and the Swiss Federal Veterinary Office (Bern). […] CD4^+ T cell engraftment and maintenance in mice was measured by flow cytometry. […]"}, "HIV-1 [2]": {"system": "HIV-1", "source_text": "CD4^+ T cells were enriched from PBMCs using MACS, and activated using irradiated allo-PBMC and IL-2. […] Cells were sorted based on GFP-expression and then challenged with replication-competent, CXCR4-tropic, HIV-1NL4-3. […] Cells were infected with HIV-1NL4-3, modified to be CCR5-tropic.\n293T human embryonic kidney cells and CRFK feline kidney cells were maintained in DMEM supplemented with 10% fetal bovine serum (FBS) and glutamax (Invitrogen). […] CD4^+ T cells were enriched from PBMCs (>99% CD4^+) using positive selection magnetic beads (Miltenyi Biotec) and stimulated for 24 hrs on multisorb 96-well plates (Nunc) coated with 2 μg/ml anti-CD3 and 2 μg/ml anti-CD28 antibodies (BD Biosciences) in RPMI with 10% FBS, glutamax (Invitrogen) and 20 IU/ml hIL-2. When indicated and in preparation for adoptive transfer to mice, CD4^+ T cells were stimulated using allogeneic-PBMCs irradiated at 50 Gy in the presence of 20 IU/ml IL-2 and phytohemagglutinin (PHA) at 1 μg/ml. Cells were washed and replated 24 hrs prior to viral transduction. […]\n2×10^4 adherent cells/well or 8×10^4 suspension cells/well were plated in 48-well plates (Nunc) for challenge with single-cycle GFP reporter vectors that were titered as indicated. GFP synthesis was assessed by flow cytometry 48 hrs post-infection. […] For infection of 10^6 primary CD4^+ T cells or macrophages, 15 ng p24/10^6 cells of a CXCR4- or CCR5-tropic HIV-1NL4-3 stock was used, and infection was monitored by assessing the accumulation of RT activity in the supernatant (Sayah et al., 2004). FACSCalibur, Cellquest Pro (Becton Dickinson), and FlowJo software (Treestar, Inc.) were used to record and analyze fluorescence. […]\nCD4^+ T cells and monocyte-derived macrophages were infected with low passage derivatives of primary isolates HIV-1DH12 and HIV-1132W, respectively. […] Infection was monitored by assessing the accumulation of RT activity in the supernatant at the indicated day post-infection, at which point CD4^+ cells were split and macrophages were fed as required.", "remark": "listed apart in the source"}},
  "note": "Read-outs that look alike come from different tables or passages of the source. Marks after values point to notes of the source that are not given here.",
  "data": [
    {"substance": "hT5Cyp: human TRIM5α fused at serine 322 to human cyclophilin A, SEQ ID NO:12", "values": [
      {"measurement": "p24^+ transduced human T cells", "setting": "HIV-1 [1]; MLN or PLN, CCR5-tropic HIV-1", "value": "Few if any"},
      {"measurement": "mean viral load", "setting": "HIV-1 [1]; n=8 per group", "value": "1.6×10^5 (+/−1.1×10^5) copies viral RNA/ml plasma"},
      {"measurement": "down-regulation of cell surface CD4", "setting": "HIV-1 [1]; thymi and lymph nodes", "value": "prevented the down-regulation of cell surface CD4"},
      {"measurement": "p24^+ transduced human T cells", "setting": "HIV-1 [1]; thymi or mesenteric lymph nodes", "value": "Few if any"},
      {"measurement": "establishment of infection", "setting": "HIV-1 [2]; CCR5-tropic HIV-1NL4-3", "value": "infection is not established"},
      {"measurement": "establishment of infection", "setting": "HIV-1 [2]; CXCR4-tropic HIV-1NL4-3", "value": "infection was not established"},
      {"measurement": "block to infection", "setting": "HIV-1 [2]; primary isolate HIV-1DH12", "value": "The same hT5Cyp-mediated block to infection"}
    ]}
  ]
}
